Test [1] concerns the target Alkaline phosphatase, placental type (Homo sapiens, UniProt P05187). The experiment in a line: Inhibition of FLAG-tagged PLAP (unknown origin) expressed in African green monkey COS1 cells after 30 mins by chemiluminescence assay. The format is cell-based, COS-1.
Test [2] has as its target T1, Alkaline phosphatase, tissue-nonspecific isozyme (Homo sapiens, UniProt P05186).
T1 sequence (P05186 whole entry): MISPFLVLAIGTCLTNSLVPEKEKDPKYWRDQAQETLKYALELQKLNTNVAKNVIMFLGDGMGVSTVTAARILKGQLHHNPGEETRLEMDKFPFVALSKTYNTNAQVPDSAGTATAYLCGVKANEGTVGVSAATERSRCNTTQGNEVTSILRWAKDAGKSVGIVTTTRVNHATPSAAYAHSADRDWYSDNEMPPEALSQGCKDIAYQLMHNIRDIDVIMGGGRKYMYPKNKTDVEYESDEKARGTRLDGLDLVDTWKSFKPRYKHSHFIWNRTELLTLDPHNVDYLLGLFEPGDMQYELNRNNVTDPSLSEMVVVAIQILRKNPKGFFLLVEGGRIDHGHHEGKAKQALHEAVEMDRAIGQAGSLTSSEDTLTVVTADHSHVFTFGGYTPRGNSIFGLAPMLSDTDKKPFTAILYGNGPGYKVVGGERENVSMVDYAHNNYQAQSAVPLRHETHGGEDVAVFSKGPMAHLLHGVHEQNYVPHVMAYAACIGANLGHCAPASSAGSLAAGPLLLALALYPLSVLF
In words: Inhibition of FLAG-tagged TNAP (unknown origin) expressed in African green monkey COS1 cells after 30 mins by chemiluminescence assay. The format is cell-based, COS-1.

In test [3] the target is T2, Intestinal-type alkaline phosphatase (Mus musculus, UniProt P24822). In words: Inhibition of mouse duodenal-specific FLAG-tagged IAP expressed in African green monkey COS1 cells after 30 mins by chemiluminescence assay. The format is cell-based, COS-1.
T2 sequence (P24822 whole entry): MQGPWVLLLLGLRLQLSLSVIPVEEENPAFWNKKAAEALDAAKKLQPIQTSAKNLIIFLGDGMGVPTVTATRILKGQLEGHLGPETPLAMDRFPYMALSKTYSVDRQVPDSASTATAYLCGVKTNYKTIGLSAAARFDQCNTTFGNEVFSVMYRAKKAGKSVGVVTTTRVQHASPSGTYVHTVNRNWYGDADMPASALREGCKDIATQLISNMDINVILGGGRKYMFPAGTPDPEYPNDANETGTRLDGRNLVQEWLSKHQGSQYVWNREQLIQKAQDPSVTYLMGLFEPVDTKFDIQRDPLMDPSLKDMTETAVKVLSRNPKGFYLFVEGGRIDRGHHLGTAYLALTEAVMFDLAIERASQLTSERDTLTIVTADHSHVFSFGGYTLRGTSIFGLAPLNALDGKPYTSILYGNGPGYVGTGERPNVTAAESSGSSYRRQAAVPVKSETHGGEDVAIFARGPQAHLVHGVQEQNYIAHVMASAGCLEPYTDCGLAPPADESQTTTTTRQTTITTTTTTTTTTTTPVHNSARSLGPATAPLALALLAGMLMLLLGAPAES
Test [4] has as its target T3, Intestinal-type alkaline phosphatase (Homo sapiens, UniProt P09923). The experiment in a line: Inhibition of human FLAG-tagged IAP expressed in African green monkey COS1 cells after 30 mins by chemiluminescence assay. The format is cell-based, COS-1.
For test [5], the target named is T3, Intestinal-type alkaline phosphatase. In words: Inhibition of human FLAG-tagged IAP expressed in African green monkey COS1 cells using p-nitrophenyl phosphate as substrate after 30 mins by chemiluminescence assay. In kind it is cell-based, COS-1.
For test [6], the target named is T2, Intestinal-type alkaline phosphatase. The experiment in a line: Competitive inhibition of mouse duodenal-specific FLAG-tagged IAP expressed in African green monkey COS1 cells using p-nitrophenyl phosphate as substrate by double reciprocal plot analysis. The format is cell-based, COS-1. Particulars: read-out: Ki(app).
The nature of test [7]: Inhibition of mouse gIAP using p-nitrophenyl phosphate as substrate after 30 mins by chemiluminescence assay.
Test [8] has as its target T4, Alkaline phosphatase, germ cell type (Mus musculus, UniProt P24823).
T4 sequence (P24823 whole entry): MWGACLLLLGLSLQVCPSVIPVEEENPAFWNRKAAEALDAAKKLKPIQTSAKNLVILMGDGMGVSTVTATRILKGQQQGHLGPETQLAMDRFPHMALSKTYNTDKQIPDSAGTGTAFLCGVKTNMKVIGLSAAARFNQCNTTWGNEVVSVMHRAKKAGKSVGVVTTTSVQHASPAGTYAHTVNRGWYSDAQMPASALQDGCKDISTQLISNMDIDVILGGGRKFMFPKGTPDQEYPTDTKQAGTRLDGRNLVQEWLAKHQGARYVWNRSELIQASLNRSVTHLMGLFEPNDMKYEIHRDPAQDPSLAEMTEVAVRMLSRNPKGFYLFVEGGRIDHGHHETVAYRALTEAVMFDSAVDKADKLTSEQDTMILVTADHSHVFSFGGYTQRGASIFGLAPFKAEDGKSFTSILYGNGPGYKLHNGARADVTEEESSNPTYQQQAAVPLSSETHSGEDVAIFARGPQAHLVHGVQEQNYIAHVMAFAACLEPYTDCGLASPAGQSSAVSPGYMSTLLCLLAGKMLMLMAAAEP
In words: Inhibition of mouse EAP using p-nitrophenyl phosphate as substrate after 30 mins by chemiluminescence assay.

Test [9] deals with T2, Intestinal-type alkaline phosphatase. In words: Inhibition of mouse duodenal-specific FLAG-tagged IAP expressed in African green monkey COS1 cells using p-nitrophenyl phosphate as substrate after 30 mins by chemiluminescence assay.
Test [10] addresses Intestinal-type alkaline phosphatase (Mus musculus) (UniProt P24822). The following applies: CHO-K1, 10 uM.
Description: Inhibition of mouse duodenal-specific IAP expressed in CHOK1 cells at 10 uM by ELF97 staining-based phase contrast microscopic analysis

Each structure is given as a SMILES string. Activity calls are given as the source filed them. No cut-off for these calls is given here.

Alkaline phosphatase, placental type, sequence (P05187 whole entry): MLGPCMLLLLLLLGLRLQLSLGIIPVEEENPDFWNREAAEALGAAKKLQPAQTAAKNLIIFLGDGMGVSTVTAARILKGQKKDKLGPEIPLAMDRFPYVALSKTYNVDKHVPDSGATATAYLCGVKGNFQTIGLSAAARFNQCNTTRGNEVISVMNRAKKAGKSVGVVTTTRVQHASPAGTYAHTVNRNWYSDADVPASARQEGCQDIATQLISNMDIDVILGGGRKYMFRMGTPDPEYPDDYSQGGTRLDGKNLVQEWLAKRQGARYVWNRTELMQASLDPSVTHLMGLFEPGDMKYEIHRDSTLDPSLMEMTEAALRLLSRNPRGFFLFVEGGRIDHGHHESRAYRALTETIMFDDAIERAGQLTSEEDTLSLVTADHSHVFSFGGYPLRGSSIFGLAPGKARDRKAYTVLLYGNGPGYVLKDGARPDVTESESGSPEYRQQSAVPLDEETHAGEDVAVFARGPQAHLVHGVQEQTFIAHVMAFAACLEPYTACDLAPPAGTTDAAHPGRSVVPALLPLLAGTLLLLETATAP
T3 sequence (P09923 whole entry): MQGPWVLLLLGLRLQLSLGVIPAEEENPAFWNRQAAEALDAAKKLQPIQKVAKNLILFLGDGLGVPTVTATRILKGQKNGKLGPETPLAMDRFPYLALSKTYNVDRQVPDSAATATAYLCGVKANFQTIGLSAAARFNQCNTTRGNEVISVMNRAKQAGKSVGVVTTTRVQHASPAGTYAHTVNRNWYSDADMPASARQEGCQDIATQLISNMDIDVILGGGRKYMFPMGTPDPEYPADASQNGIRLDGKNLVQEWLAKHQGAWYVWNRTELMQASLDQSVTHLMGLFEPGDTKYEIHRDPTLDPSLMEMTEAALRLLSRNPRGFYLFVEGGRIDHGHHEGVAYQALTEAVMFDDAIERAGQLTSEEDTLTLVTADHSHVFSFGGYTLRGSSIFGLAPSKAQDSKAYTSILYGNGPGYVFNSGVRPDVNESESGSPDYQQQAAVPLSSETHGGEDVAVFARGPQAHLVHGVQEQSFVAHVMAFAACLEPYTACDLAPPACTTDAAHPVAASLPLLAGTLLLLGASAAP
Intestinal-type alkaline phosphatase (Mus musculus), sequence (P24822 whole entry): as the sequence (P24822 whole entry) above

As for `COc1ccc(NC(=O)NS(=O)(=O)c2ccc3[nH]c(=O)oc3c2)cc1OC`, the IC50 in test [1], in test [2] and in [3] was over 100 µM throughout.

`O=C(CCNS(=O)(=O)c1ccc2[nH]c(=O)oc2c1)NCCc1ccc2c(c1)OCO2`: the IC50 (as a rule, the midpoint of a concentration-inhibition curve) is over 100 µM in test [1], over 100 µM in [2] and 19 µM in test [3].

On to `COc1cccc(CNC(=O)NS(=O)(=O)c2ccc3[nH]c(=O)oc3c2)c1`, for which the IC50 in test [1] is over 100 µM; in test [2], over 100 µM; in test [3], 40 µM.

With `N#Cc1ccc(NC(=O)NS(=O)(=O)c2ccc3[nH]c(=O)oc3c2)cc1`, the IC50 in [1], in test [2] and in test [3] was over 100 µM throughout.

Take `O=C(CNS(=O)(=O)c1ccc2[nH]c(=O)oc2c1)NCc1ccc2c(c1)OCO2`: the IC50 in test [1], in test [2] and in [3] was over 100 µM each time.

On to `O=C(Nc1ccc2c(c1)OCO2)NS(=O)(=O)c1ccc2[nH]c(=O)oc2c1`, for which the IC50 in test [1], in [2] and in test [3] was over 100 µM throughout.

For the molecule `O=C(CCCNS(=O)(=O)c1ccc2[nH]c(=O)oc2c1)NCc1ccc2c(c1)OCO2`, the values for the IC50 in [1], in [2] and in test [3] were over 100 µM, over 100 µM and 45 µM, respectively.

`O=C(NCCc1ccc2c(c1)OCO2)NS(=O)(=O)c1ccc2[nH]c(=O)oc2c1`: the IC50 in test [1], in test [2] and in test [3] was over 100 µM in each case.

Consider `N#Cc1cccc(NC(=O)CCNS(=O)(=O)c2ccc3nc(O)oc3c2)c1`, for which the IC50 is over 100 µM in test [1], over 100 µM in test [2], over 100 µM in test [4] and 1.82 µM in test [3].

Take `Cc1ccc(C)c(NC(=O)NS(=O)(=O)c2ccc3[nH]c(=O)oc3c2)c1`: the IC50 in test [1], in [2] and in [3] was over 100 µM in each case.

`COc1ccc(CNC(=O)NS(=O)(=O)c2ccc3[nH]c(=O)oc3c2)c(OC)c1`: the figures for the IC50 in [1], in test [2] and in [3] were over 100 µM, over 100 µM and 89 µM, respectively.

As for `Cc1ccc(C)c(NC(=O)CNS(=O)(=O)c2ccc3[nH]c(=O)oc3c2)c1`, the IC50 is 27.6 µM in [5]; 21 µM in test [7]; 21.1 µM in test [8]; 3.8 µM in test [9]; over 100 µM in [1]; 35 µM in test [2]. In test [3], inhibition was half-maximal at 0.54 µM (IC50). Moreover, in [6], the Ki came to 3.2 µM. Moreover, the inhibition result in test [10] is “Active”.

`O=C(CCNS(=O)(=O)c1ccc2[nH]c(=O)oc2c1)NCc1ccc2c(c1)OCO2`: the IC50 in test [1] was over 100 µM; in [2] it was over 100 µM; in test [3], 2.6 µM.

For `O=C(CCNS(=O)(=O)c1ccc2[nH]c(=O)oc2c1)Nc1ccc2c(c1)OCO2`, the IC50 in [1] was over 100 µM; in test [2], over 100 µM; in test [3] it was 12 µM.

With `O=C(CCNS(=O)(=O)c1ccc2[nH]c(=O)oc2c1)NCCCc1ccc2c(c1)OCO2`, the IC50 was over 100 µM in test [1], over 100 µM in test [2] and 44 µM in test [3].

As to `O=C(CNS(=O)(=O)c1ccc2[nH]c(=O)oc2c1)NCCc1ccc2c(c1)OCO2`, the IC50 in [1], in [2] and in test [3] was over 100 µM in each case.

In the case of `N#Cc1cccc(NC(=O)NS(=O)(=O)c2ccc3[nH]c(=O)oc3c2)c1`, the IC50 in test [1], in [2] and in test [3] was over 100 µM each time.

Values taken from ChEMBL document CHEMBL3112449, “Identification of a selective inhibitor of murine intestinal alkaline phosphatase (ML260) by concurrent ultra-high throughput screening against human and mouse isozymes” (Bioorg Med Chem Lett, 2014).
